Test results from US20230219904A1 (SYNGENTA CROP PROTECTION AG, priority 2020, published 2023).

Experiments:
Assay type in all cases: in vivo
Settings in all cases: evaluated after 13 days
[1] = test system: Abutilon theophrasti (ABUTH); assay: Pre-emergence herbicidal glasshouse test (Table B1)
Procedure, shortened: (§1)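 Spraying at 500 g/h unless indicated occurs either one day after sowing (pre-emergence) or after 8 days of cultivation (post-emergence). Percentage damage is then assessed after 13 days and binned as 5=80-100%, 4=60-79%, 3=40-59%, 2=20-39%, 1=0-19%.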

[2] = test system: Amaranthus retoflexus (AMARE); assay: as above
Procedure, shortened: as §1

[3] = test system: Echinochloa crus-galh (ECHCG); assay: as above
Procedure, shortened: as §1

[4] = test system: Ipomoea hederacea (IPOHE); assay: as above
Procedure, shortened: as §1

Setaria faberi (SETFA) [5] = assay: as above
Procedure, shortened: as §1

[6] = test system: Abutilon theophrasti (ABUTH); assay: Post-emergence herbicidal glasshouse test (Table B1)
Procedure, shortened: as §1

[7] = test system: Amaranthus retoflexus (AMARE); assay: as above
Procedure, shortened: as §1

[8] = test system: Echinochloa crus-galh (ECHCG); assay: as above
Procedure, shortened: as §1

[9] = test system: Ipomoea hederacea (IPOHE); assay: as above
Procedure, shortened: as §1

Setaria faberi (SETFA) [10] = assay: as above
Procedure, shortened: as §1

SMILES | PRE Application ABUTH, percentage damage on five-point scale ([1]; applied at 125 g/ha) | PRE Application AMARE, percentage damage on five-point scale ([2]; applied at 125 g/ha) | PRE Application ECHCG, percentage damage on five-point scale ([3]; applied at 125 g/ha) | PRE Application IPOHE, percentage damage on five-point scale ([4]; applied at 125 g/ha) | PRE Application SETFA, percentage damage on five-point scale (Setaria faberi (SETFA) [5]; applied at 125 g/ha) | POST Application ABUTH, percentage damage on five-point scale ([6]; applied at 125 g/ha) | POST Application AMARE, percentage damage on five-point scale ([7]; applied at 125 g/ha) | POST Application ECHCG, percentage damage on five-point scale ([8]; applied at 125 g/ha) | POST Application IPOHE, percentage damage on five-point scale ([9]; applied at 125 g/ha) | POST Application SETFA, percentage damage on five-point scale (Setaria faberi (SETFA) [10]; applied at 125 g/ha) | PRE Application ABUTH, percentage damage on five-point scale ([1]; applied at 500 g/h) | PRE Application AMARE, percentage damage on five-point scale ([2]; applied at 500 g/h) | PRE Application ECHCG, percentage damage on five-point scale ([3]; applied at 500 g/h) | PRE Application IPOHE, percentage damage on five-point scale ([4]; applied) | PRE Application SETFA, percentage damage on five-point scale (Setaria faberi (SETFA) [5]; applied at 500 g/h) | POST Application ABUTH, percentage damage on five-point scale ([6]; applied at 500 g/h) | POST Application AMARE, percentage damage on five-point scale ([7]; applied at 500 g/h) | POST Application ECHCG, percentage damage on five-point scale ([8]; applied at 500 g/h) | POST Application IPOHE, percentage damage on five-point scale ([9]; applied at 500 g/h) | POST Application SETFA, percentage damage on five-point scale (Setaria faberi (SETFA) [10]; applied at 500 g/h)
CCC(=O)Nc1c(OC(F)F)ccc(C(=O)Nc2nnnn2C)c1Cl [Compound 1.022] | 5 (5=80-100%) | 5 (5=80-100%) | 5 (5=80-100%) | 4 (4=60-79%) | 5 (5=80-100%) | 5 (5=80-100%) | 5 (5=80-100%) | 5 (5=80-100%) | 4 (4=60-79%) | 5 (5=80-100%) | – | – | – | – | – | – | – | – | – | –
CCCn1nnnc1NC(=O)c1ccc(OC(F)(F)F)c(NC(C)=O)c1Cl [Compound 1.129] | – | – | – | – | – | – | – | – | – | – | 5 (5=80-100%) | 5 (5=80-100%) | 4 (4=60-79%) | 2 (2=20-39%) | 1 (1=0-19%) | 5 (5=80-100%) | 5 (5=80-100%) | 5 (5=80-100%) | 5 (5=80-100%) | 5 (5=80-100%)
COc1ccc(C(=O)Nc2nnnn2C)c(Cl)c1NC(=O)C(C)F (stereo not shown) [Compound 1.028, 2-chloro-3-(2-fluoropropanoylamino)-4-methoxy-N-(1-methyltetrazol-5-yl)benzamide] | – | – | – | – | – | – | – | – | – | – | 5 (5=80-100%) | 5 (5=80-100%) | 4 (4=60-79%) | 3 (3=40-59%) | 3 (3=40-59%) | 5 (5=80-100%) | 5 (5=80-100%) | 3 (3=40-59%) | 4 (4=60-79%) | 4 (4=60-79%)
COc1ccc(C(=O)Nc2c(OC(F)F)ccc(C(=O)Nc3nnnn3C)c2Cl)cc1 [Compound 1.101] | 4 (4=60-79%) | 4 (4=60-79%) | 1 (1=0-19%) | 2 (2=20-39%) | 4 (4=60-79%) | 4 (4=60-79%) | 4 (4=60-79%) | 5 (5=80-100%) | 4 (4=60-79%) | 4 (4=60-79%) | – | – | – | – | – | – | – | – | – | –
CCN(C(=O)C(C)F)c1c(OC(F)F)ccc(C(=O)Nc2nnnn2C)c1Cl (stereo not shown) [Compound 1.026] | 5 (5=80-100%) | 5 (5=80-100%) | 5 (5=80-100%) | 4 (4=60-79%) | 5 (5=80-100%) | 4 (4=60-79%) | 4 (4=60-79%) | 5 (5=80-100%) | 4 (4=60-79%) | 4 (4=60-79%) | – | – | – | – | – | – | – | – | – | –
Cn1nnnc1NC(=O)c1ccc(OC(F)F)c(NC(=O)C2CC2)c1Cl [Compound 1.019] | 5 (5=80-100%) | 5 (5=80-100%) | 5 (5=80-100%) | 5 (5=80-100%) | 5 (5=80-100%) | 5 (5=80-100%) | 5 (5=80-100%) | 5 (5=80-100%) | 5 (5=80-100%) | 5 (5=80-100%) | – | – | – | – | – | – | – | – | – | –
COC(C)C(=O)Nc1c(OC(F)(F)F)ccc(C(=O)Nc2nnnn2C)c1Cl (stereo not shown) [Compound 1.063] | 5 (5=80-100%) | 5 (5=80-100%) | 5 (5=80-100%) | 5 (5=80-100%) | 5 (5=80-100%) | 5 (5=80-100%) | 5 (5=80-100%) | 5 (5=80-100%) | 4 (4=60-79%) | 5 (5=80-100%) | – | – | – | – | – | – | – | – | – | –
CCC(=O)N(CC)c1c(OC(F)F)ccc(C(=O)Nc2nnnn2C)c1Cl [Compound 1.021] | 5 (5=80-100%) | 3 (3=40-59%) | 3 (3=40-59%) | 3 (3=40-59%) | 3 (3=40-59%) | 4 (4=60-79%) | 3 (3=40-59%) | 4 (4=60-79%) | 3 (3=40-59%) | 4 (4=60-79%) | – | – | – | – | – | – | – | – | – | –
Cc1nnc(NC(=O)c2ccc(OC(F)(F)F)c(NC(=O)C3CC3)c2Cl)o1 [Compound 1.115] | 4 (4=60-79%) | 4 (4=60-79%) | 5 (5=80-100%) | 2 (2=20-39%) | 4 (4=60-79%) | 4 (4=60-79%) | 3 (3=40-59%) | 4 (4=60-79%) | 4 (4=60-79%) | 4 (4=60-79%) | – | – | – | – | – | – | – | – | – | –
COC(C)(C)C(=O)Nc1c(OC(F)(F)F)ccc(C(=O)Nc2nnnn2C)c1Cl [Compound 1.125] | – | – | – | – | – | – | – | – | – | – | 5 (5=80-100%) | 5 (5=80-100%) | 5 (5=80-100%) | 4 (4=60-79%) | 1 (1=0-19%) | 5 (5=80-100%) | 5 (5=80-100%) | 5 (5=80-100%) | 5 (5=80-100%) | 5 (5=80-100%)
CCn1nnnc1NC(=O)c1ccc(OC(F)(F)F)c(NC(=O)C(F)F)c1Cl [Compound 1.122] | 3 (3=40-59%) | 5 (5=80-100%) | 4 (4=60-79%) | 1 (1=0-19%) | 3 (3=40-59%) | 4 (4=60-79%) | 5 (5=80-100%) | 4 (4=60-79%) | 2 (2=20-39%) | 3 (3=40-59%) | – | – | – | – | – | – | – | – | – | –
CNc1c(OC(F)(F)F)ccc(C(=O)Nc2nnnn2C)c1Cl [Compound 1.005] | – | – | – | – | – | – | – | – | – | – | 5 (5=80-100%) | 5 (5=80-100%) | 5 (5=80-100%) | 5 (5=80-100%) | 5 (5=80-100%) | 5 (5=80-100%) | 5 (5=80-100%) | 5 (5=80-100%) | 5 (5=80-100%) | 5 (5=80-100%)
Cn1nnnc1NC(=O)c1ccc(OC(F)F)c(NC(=O)c2ccc(F)cc2)c1Cl [Compound 1.099] | 4 (4=60-79%) | 5 (5=80-100%) | 1 (1=0-19%) | 3 (3=40-59%) | 1 (1=0-19%) | 4 (4=60-79%) | 4 (4=60-79%) | 4 (4=60-79%) | 4 (4=60-79%) | 3 (3=40-59%) | – | – | – | – | – | – | – | – | – | –
